Assay [1] has as its system cholesterol (10%, molar ratio) containing lipid membrane. Briefly: Release of dye from porous particles coated with cholesterol containing lipid membrane by streptolysin-O. The class given is biochemical. Conditions: low concentrations of streptolysin-O versus control without. The method, then:
FIGS. 22A-B illustrate one aspect of the invention—drug and/or dye release from the present lipid-coated particles. FIG. 22A is a graph showing release of dye from porous particles (containing dye inside) where the particles are coated with a cholesterol (10%, molar ratio) containing lipid membrane. As increasing amounts of streptolysin-O are added (solid square symbols represent lower concentration than solid ovals), more dye is released. […] FIG. 22B illustrates how streptolysin-O can disrupt cholesterol-containing lipid bilayer membranes, leading to release of materials (e.g., drugs or antibiotics) enclosed within the membrane. Streptolysin-O is an anti-microbial protein that preferably binds to cholesterol and can disrupt cholesterol-containing membranes.

A further assay relates to lipid bilayer. The assay can be described thus: Superquenching of fluorescent polymer coated lipid bilayer beads (general statement). The assay is classed as biochemical. Conditions: streptolysin O with cholesterol-containing lipids, mellitin with anionic lipids. From the text: On the other hand, some test agents may only lead to gaps or smaller interruptions of the lipid bilayer, for example, as a result of insertion of a channel- or pore-forming proteins such as gramicidin and hemolysin. In either case, the result is either complete or partial superquenching of the fluorescent polymer. In general, non-porous beads are used for such quenching assays because the quenchable polymer is preferably coated onto the beads and is not impregnated into the beads.

For assay [2], the system named is anionic phospholipids. Briefly: Affinity of PLA2 for anionic phospholipids (Kim et al.). The assay is classed as binding. From the text: From FIG. 18, the association constant (corresponding to the reciprocal of the point of half saturation) for nMLT and sMLT with DMPG were 5×10^6 M^−1 and 1.7×10^6 M^−1, respectively. […] Lower concentrations of nMLT, in comparison to sMLT, were required to disrupt the DMPG lipid bilayer. This might be attributed to the fact that nMLT contains some phospholipase A2 (PLA2) as a contaminant. PLA2 has a high affinity for anionic phospholipids, with an association constant of 0.5×10^10 M^−1 (Kim et al., Anal. Chem. 250, 109-116 (1997)), which is about 3000 fold higher than that of MLT. Although PLA2 activity requires calcium, which is not present in the experimental system, it has been reported that even upon addition of EDTA to natural MLT, PLA2 maintains its activity, probably due to formation of a tight complex with calcium with PLA2 (Dempsey, C. E. Biochim. Biophys. Acta 1990, 1031, 143-161).

In assay [3] the test system is anionic phospholipids. Conditions: cited from earlier work.
In another assay the target is monomeric IgG. As to conditions: cited from earlier work.

As to “streptolysin-O: anti-microbial protein that preferably binds to cholesterol and can disrupt cholesterol-containing membranes”, in assay [1], the release of dye result is reported as “greater than observed for control”. In addition, the “effect on the lipid bilayer” value with lipid bilayer is “total disruption of the bilayer”.

On to “PLA2: lipolytic enzyme, contaminant of natural melittin”, for which the “association constant relative to that of MLT” value with anionic phospholipids [2] is “about 3000 fold”. The “effect on the lipid bilayer” value in the assay on lipid bilayer is listed as “total disruption of the bilayer”. Moreover, the association constant in the assay on anionic phospholipids [3] was 5e+09 M⁻¹.

B1: FcγRIIb: low affinity IgG receptor, single polypeptide chain of 310 amino acids (protein, UniProt P31994 43-310, looked up)
Low affinity immunoglobulin …: TPAAPPKAVLKLEPQWINVLQEDSVTLTCRGTHSPESDSIQWFHNGNLIPTHTQPSYRFKANNNDSGEYTCQTGQTSLSDPVHLTVLSEWLVLQTPHLEFQEGETIVLRCHSWKDKPLVKVTFFQNGKSKKFSRSDPNFSIPQANHSHSGDYHCTGNIGYTLYSSKPVTITVQAPSSSPMGIIVAVVTGIAVAAIVAAVVALIYCRKKRISALPGYPECREMGETLPEKPANPTNPDEADKVGAENTITYSLLMHPDALEEPDDQNRI
In the case of B1, at monomeric IgG, the Kd (in general, a measure of binding affinity in units of concentration) was around 1000 nM.

Source of the values: US8334107B2, “Detection systems utilizing supported lipid bilayers” (priority 2005, dated 2012).
